The source of these data is US9662327B2 (AGIOS PHARMACEUTICALS, INC, priority 2011, dated 2017).

Molecules are shown by their SMILES. pIC50: −log10 of the molar value.

One assay concerns U87R132H (U87MG) cells. In words: Cellular assay for IDH1m inhibitors: inhibition of 2-HG production in U87MG (U87R132H) cells (LC-MS). In kind it is cell-based. To be noted: Homo sapiens, U-87 MG, 48 hours. The procedure: (§1) Cells (e.g., HT1080 or U87MG) are grown in T125 flasks in DMEM containing 10% FBS, 1× penicillin/streptomycin and 500 ug/mL G418. They are harvested by trypsin and seeded into 96 well white bottom plates at a density of 5000 cell/well in 100 ul/well in DMEM with 10% FBS. No cells are plates in columns 1 and 12. Cells are incubated overnight at 37 C in 5% CO2. The next day compounds are made up at 2× concentration and 100 ul are added to each cell well. The final concentration of DMSO is 0.2% and the DMSO control wells are plated in row G. The plates are then placed in the incubator for 48 hours. At 48 hours, 100 ul of media is removed from each well and analyzed by LC-MS for 2-HG concentrations. The cell plate is placed back in the incubator for another 24 hours. At 72 hours post compound addition, 10 mL/plate of Promega Cell Titer Glo reagent is thawed and mixed. The cell plate is removed from the incubator and allowed to equilibrate to room temperature. Then 100 ul of reagent is added to each well of media. The cell plate is then placed on an orbital shaker for 10 minutes and then allowed to sit at room temperature for 20 minutes. The plate is then read for luminescence with an integration time of 500 ms.

The target of a further assay is IDH1 R132H (Homo sapiens (Human), UniProt O75874, R132H). In words: Assays for IDH1 R132H Inhibitors (NADPH/aKG, resazurin detection). In kind it is biochemical. To be noted: IDH1 R132H enzyme, Table 3; read-out: R132H IC50. Put shortly:
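Mutant enzyme in 150 mM NaCl, 10 mM MgCl2, 20 mM Tris pH 7.5, 0.03% BSA; compound in DMSO added to substrate mix of 8 uM NADPH and 2 mM aKG. Reaction ran 50 min at room temperature, then resazurin detection mix (30 μM) added for 5 min at room temperature.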
Background: The colour change of resazurin is a common sign of viable cells or microbes.

The test system of another assay is HT1080 cells. In words: Cellular assay for IDH1m inhibitors: inhibition of 2-HG production in HT1080 cells (LC-MS). In kind it is cell-based. To be noted: Homo sapiens, HT-1080, 48 hours. The procedure: as §1

IDH1 R132H, sequence (O75874 whole entry R132H): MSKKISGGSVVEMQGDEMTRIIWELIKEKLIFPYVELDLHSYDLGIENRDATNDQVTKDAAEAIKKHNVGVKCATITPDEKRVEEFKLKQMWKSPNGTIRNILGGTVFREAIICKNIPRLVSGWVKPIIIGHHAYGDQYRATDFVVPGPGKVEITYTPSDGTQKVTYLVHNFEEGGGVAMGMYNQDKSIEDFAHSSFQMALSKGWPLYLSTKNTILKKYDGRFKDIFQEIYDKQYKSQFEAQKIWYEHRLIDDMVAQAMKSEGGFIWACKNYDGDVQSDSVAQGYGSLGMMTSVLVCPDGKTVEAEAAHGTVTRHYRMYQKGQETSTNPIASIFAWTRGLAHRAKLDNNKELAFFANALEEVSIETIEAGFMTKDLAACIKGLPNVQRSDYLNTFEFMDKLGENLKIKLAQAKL

Take `[2H]C1([2H])CN(c2nc(C3CC3)c3c(c2C#N)CC(C)(C)OC3)C([2H])([2H])[C@@]([2H])(C([2H])(C([2H])([2H])[2H])C([2H])([2H])[2H])N1C(=O)CCOC` [Compound 438, (R)-8-cyclopropyl-3,3-dimethyl-6-(2,2,3,5,5-pentadeuterio-4-(3-methoxypropanoyl)-3-(perdeuteriopropan-2-yl)piperazin-1-yl)-3,4-dihydro-1H-pyrano[3,4-c]pyridine-5-carbonitrile]: the pIC50 with U87R132H (U87MG) cells, on IDH1 R132H and with HT1080 cells was above 6.30 throughout.
With `CC(C)[C@@H]1CN(c2nc(C3CC3)c3c(c2C#N)CC(C)(C)OC3)CCN1C(=O)Cc1nnco1` [Compound 455, (R)-6-(4-(2-(1,3,4-oxadiazol-2-yl)acetyl)-3-isopropylpiperazin-1-yl)-8-cyclopropyl-3,3-dimethyl-3,4-dihydro-1H-pyrano[3,4-c]pyridine-5-carbonitrile], the pIC50 in the assay with U87R132H (U87MG) cells was above 6.30; at IDH1 R132H, 6.00 to 6.30; in the assay on HT1080 cells it was above 6.30.
For `[2H]C([2H])([2H])C([2H])(C([2H])([2H])[2H])[C@@]1([2H])N(C(=O)CCC(=O)OC)C([2H])([2H])C([2H])([2H])N(c2nc(C3CC3)c3c(c2C#N)CC(C)(C)OC3)C1([2H])[2H]` [Compound 450], the pIC50 in the assay with U87R132H (U87MG) cells, at IDH1 R132H and in the assay on HT1080 cells was above 6.30 throughout.
In the case of `CC1(C)Cc2c(C#N)c(N3CCN(C(=O)CC(F)(F)F)[C@H](C4CC4)C3)nc(C3CC3)c2CO1` [Compound 435, (R)-8-cyclopropyl-6-(3-cyclopropyl-4-(3,3,3-trifluoropropanoyl)piperazin-1-yl)-3,3-dimethyl-3,4-dihydro-1H-pyrano[3,4-c]pyridine-5-carbonitrile], the pIC50 with U87R132H (U87MG) cells, at IDH1 R132H and with HT1080 cells was above 6.30 throughout.
Turning to `CC1(C)Cc2c(C#N)c(N3CCN(C(=O)CC(F)(F)F)C(C4CC4)C3)nc(C3CC3)c2CO1` (stereo not drawn) [Compound 430, 8-cyclopropyl-6-(3-cyclopropyl-4-(3,3,3-trifluoropropanoyl)piperazin-1-yl)-3,3-dimethyl-3,4-dihydro-1H-pyrano[3,4-c]pyridine-5-carbonitrile], the pIC50 was above 6.30 with U87R132H (U87MG) cells, above 6.30 at IDH1 R132H and 6.00 to 6.30 in the assay with HT1080 cells.
`CCOC(=O)C1CN(c2nc(C3CC3)c3c(c2C#N)CC(C)(C)OC3)CCN1C(=O)Cc1cccs1` (stereo not drawn) [Compound 421, Ethyl 4-(5-cyano-8-cyclopropyl-3,3-dimethyl-3,4-dihydro-1H-pyrano[3,4-c]pyridin-6-yl)-1-(2-(thiophen-2-yl)acetyl)piperazine-2-carboxylate]: the pIC50 in the assay on U87R132H (U87MG) cells is 5.00 to 6.00; at IDH1 R132H it was 6.00 to 6.30; in the assay with HT1080 cells, 5.00 to 6.00.
For the compound `CC1(C)Cc2c(C#N)c(N3CCN(C(=O)C4CC4)C(C(F)F)C3)nc(C3CC3)c2CO1` (stereo not drawn) [Compound 463, 6-(4-(cyclopropanecarbonyl)-3-(difluoromethyl)piperazin-1-yl)-8-cyclopropyl-3,3-dimethyl-3,4-dihydro-1H-pyrano[3,4-c]pyridine-5-carbonitrile], the pIC50 in the assay with U87R132H (U87MG) cells was 5.00 to 6.00; at IDH1 R132H it was 6.00 to 6.30; in the assay on HT1080 cells, 5.00 to 6.00.
As to `COCCCC(=O)N1CCN(c2nc(C3CC3)c3c(c2C#N)CC(C)(C)OC3)C[C@H]1C(C)C` [Compound 424, (R)-8-cyclopropyl-6-(3-isopropyl-4-(4-methoxybutanoyl)piperazin-1-yl)-3,3-dimethyl-3,4-dihydro-1H-pyrano[3,4-c]pyridine-5-carbonitrile], the pIC50 in the assay on U87R132H (U87MG) cells was 6.00 to 6.30; at IDH1 R132H, above 6.30; in the assay on HT1080 cells, 6.00 to 6.30.
Regarding `COCCC(=O)N1CCN(c2nc(C3CC3)c3c(c2C#N)CC(C)(C)OC3)CC1C1CC1` (stereo not drawn) [Compound 425, 8-cyclopropyl-6-(3-cyclopropyl-4-(3-methoxypropanoyl)piperazin-1-yl)-3,3-dimethyl-3,4-dihydro-1H-pyrano[3,4-c]pyridine-5-carbonitrile], the pIC50 with U87R132H (U87MG) cells, on IDH1 R132H and in the assay on HT1080 cells was above 6.30 in each case.
Turning to `COC(=O)CC(=O)N1CCN(c2nc(C3CC3)c3c(c2C#N)CC(C)(C)OC3)C[C@H]1C1CC1` [Compound 440, (R)-methyl 3-(4-(5-cyano-8-cyclopropyl-3,3-dimethyl-3,4-dihydro-1H-pyrano[3,4-c]pyridin-6-yl)-2-cyclopropylpiperazin-1-yl)-3-oxopropanoate], the pIC50 in the assay with U87R132H (U87MG) cells, at IDH1 R132H and in the assay with HT1080 cells was above 6.30 each time.
With `CC1(C)Cc2c(C#N)c(N3CCN(C(=O)CCO)[C@H](C4CC4)C3)nc(C3CC3)c2CO1` [Compound 460, (R)-8-cyclopropyl-6-(3-cyclopropyl-4-(3-hydroxypropanoyl)piperazin-1-yl)-3,3-dimethyl-3,4-dihydro-1H-pyrano[3,4-c]pyridine-5-carbonitrile], the pIC50 in the assay on U87R132H (U87MG) cells, on IDH1 R132H and in the assay with HT1080 cells was above 6.30 each time.
Turning to `C#CC(=O)N1CCc2c(C3CC3)nc(N3CCN(C(=O)CCOC)[C@H](C4CC4)C3)c(C#N)c2C1` [Compound 486, (R)-1-cyclopropyl-3-(3-cyclopropyl-4-(3-methoxypropanoyl)piperazin-1-yl)-6-propioloyl-5,6,7,8-tetrahydro-2,6-naphthyridine-4-carbonitrile], the pIC50 with U87R132H (U87MG) cells, at IDH1 R132H and in the assay on HT1080 cells was above 6.30 each time.
Consider `C=CS(=O)(=O)N1CCc2c(C#N)c(N3CCN(C(=O)C4CC4)[C@H](C4CC4)C3)nc(C3CC3)c2C1` [Compound 493, (R)-3-(4-(cyclopropanecarbonyl)-3-cyclopropylpiperazin-1-yl)-1-cyclopropyl-7-(vinylsulfonyl)-5,6,7,8-tetrahydro-2,7-naphthyridine-4-carbonitrile], for which the pIC50 in the assay on U87R132H (U87MG) cells, on IDH1 R132H and in the assay with HT1080 cells was above 6.30 each time.
As to `[2H]C1([2H])CN(C(=O)CCOC)[C@]([2H])(C([2H])(C([2H])([2H])[2H])C([2H])([2H])[2H])CN1c1nc(C2CC2)c2c(c1C#N)CC(C)(C)OC2` [Compound 444, (R)-8-cyclopropyl-3,3-dimethyl-6-(2,2,5-trideuterio-4-(3-methoxypropanoyl)-5-(perdeuteriopropan-2-yl)piperazin-1-yl)-3,4-dihydro-1H-pyrano[3,4-c]pyridine-5-carbonitrile], the pIC50 in the assay with U87R132H (U87MG) cells, on IDH1 R132H and in the assay on HT1080 cells was above 6.30 in each case.
For the compound `C=CS(=O)(=O)N1CCc2c(C#N)c(-c3ccc(C(=O)OC)cc3F)nc(C3CC3)c2C1` [Compound 496], the pIC50 with U87R132H (U87MG) cells, on IDH1 R132H and with HT1080 cells was above 6.30 in each case.
Turning to `[2H]C([2H])([2H])C([2H])(C([2H])([2H])[2H])C1([2H])CN(c2nc(C3CC3)c3c(c2C#N)CC(C)(C)OC3)CCN1C(=O)CC(F)(F)F` (stereo in doubt) [Compound 451, (R)-8-cyclopropyl-6-(3-deuterio-3-(perdeuteriopropan-2-yl)-4-(3,3,3-trifluoropropanoyl)piperazin-1-yl)-3,3-dimethyl-3,4-dihydro-1H-pyrano[3,4-c]pyridine-5-carbonitrile], the pIC50 with U87R132H (U87MG) cells is 5.00 to 6.00; on IDH1 R132H, above 6.30; in the assay on HT1080 cells, 5.00 to 6.00.
Take `C=CC(=O)N1CCc2c(C#N)c(N3CCN(C(=O)CCOC)[C@H](C4CC4)C3)nc(C3CC3)c2C1` [Compound 485, (R)-7-acryloyl-1-cyclopropyl-3-(3-cyclopropyl-4-(3-methoxypropanoyl)piperazin-1-yl)-5,6,7,8-tetrahydro-2,7-naphthyridine-4-carbonitrile]: the pIC50 in the assay with U87R132H (U87MG) cells, at IDH1 R132H and with HT1080 cells was above 6.30 throughout.
With `CC(O)CC(=O)N1CCN(c2nc(C3CC3)c3c(c2C#N)CC(C)(C)OC3)C[C@H]1C1CC1` (stereo partly drawn) [Compound 442, 8-cyclopropyl-6-((3R)-3-cyclopropyl-4-(3-hydroxybutanoyl)piperazin-1-yl)-3,3-dimethyl-3,4-dihydro-1H-pyrano[3,4-c]pyridine-5-carbonitrile], the negative logarithm of the IC50 (pIC50) in the assay on U87R132H (U87MG) cells was 6.00 to 6.30; at IDH1 R132H, above 6.30; with HT1080 cells it was 6.00 to 6.30.
As to `CC(C)[C@@H]1CN(c2nc(C3CC3)c3c(c2C#N)CC(C)(C)OC3)CCN1C(=O)CCF` [Compound 437, (R)-8-cyclopropyl-6-(4-(3-fluoropropanoyl)-3-isopropylpiperazin-1-yl)-3,3-dimethyl-3,4-dihydro-1H-pyrano[3,4-c]pyridine-5-carbonitrile], the pIC50 in the assay on U87R132H (U87MG) cells is 5.00 to 6.00; on IDH1 R132H it was above 6.30; in the assay on HT1080 cells, 5.00 to 6.00.

By pIC50 is commonly meant the negative decadic logarithm of the IC50, by convention in mol/L.
